Assay results: patent publication US20140148355A1, “COMPOSITIONS AND METHODS FOR ANALYSIS OF H3K4 METHYLATED CHROMATIN” (UNIVERSITY OF OSLO, priority 2011, published 2014)

Tested on: H3K4 methylated chromatin
Test: Chromatin pulldown (ChPD) with western blot detection
Type: binding
Conditions: antibodies against each of the three H3K4 methylation states; Arabidopsis seedling chromatin
Excerpt: FIG. 8 Chromatin pulldown (ChPD) using the ASHH2 CW. […] Modified histones were visualised by western blot using antibodies as indicated. Molecular size markers are shown to the right. (B) qPCR with primers for assumed ASHH2 target genes on DNA isolated from seedling chromatin pulled down with GST-CWASHH2. ChPD with GST alone was used as a negative control. Data are shown as percent of input. The Ta3 retrotransposon was used as reference. Standard deviations are shown. (C) ChIP using antibodies against H3K4me1, H3K4me3 and H3K36me3 and primers for the same genes as in (B). Data are shown relative to Ta3. (D) ChPD from wt and ashh2 mutant seedlings as in (A) using antibodies as indicated. ChPD with GST alone was used as a negative control and histone H3 as reference.
Chromatin pull-down (ChPD) was performed using crude chromatin in ChIP dilution buffer (1.1% Triton X-100, 1.2 mM EDTA, 16.7 mM Tris-HCL pH 8, 167 mM NaCl) prepared as for ChIP (Gendrel et al., 2005) incubated with 8 μg GST-CW fusion protein and control proteins (only GST alone, or together with GST-CW-W874A and GST-WIYLD) over night. For western blotting, the pulled down chromatin was washed three times in ChIP dilution buffer, run on a 15% SDS-PAGE and blotted onto a PVDF membrane. […]

WIYLD domain of SUVR4: WIYLD domain of the Arabidopsis SET-domain protein SUVR4, GST fusion, negative control [reference compound]
pull down of H3K4 methylated chromatin (western blot signal): did not pull down
